{"source": "paper PMC2814954", "about": "(Biochemical pharmacology, 2009)", "key": {"Caco-2 cells [1]": {"test_system": "Caco-2 cells", "assay": "Reversibility of fatty acid uptake inhibition after 24 h recovery", "assay_type": "cell-based, human", "details": "compound 40 μM for 1 h, washed, mean ± SD"}, "HepG2 cells": {"test_system": "HepG2 cells", "assay": "C1-BODIPY-C12 fatty acid uptake inhibition in HepG2 cells", "assay_type": "cell-based", "details": "Homo sapiens, HepG2, read-out: HepG2 IC50"}, "3T3-L1 adipocytes": {"test_system": "3T3-L1 adipocytes", "assay": "C1-BODIPY-C12 fatty acid uptake inhibition in 3T3-L1 adipocytes", "assay_type": "cell-based", "details": "Mus musculus, 3T3-L1, read-out: 3T3-L1 Adipocytes IC50"}, "[2]": {"test_system": "long chain acyl-CoA synthetase (Acsl)", "assay": "Oleoyl-CoA synthetase", "assay_type": "biochemical, human", "details": "Caco-2 cells pretreated 1 h; for Oleoyl CoA synthetase activity after compound treatment: rinsed, total cell extracts"}, "Caco-2 cells [3]": {"test_system": "Caco-2 cells", "assay": "Glucose", "assay_type": "cell-based, human", "details": "1 h preincubation"}, "Caco-2 cells [4]": {"test_system": "Caco-2 cells", "assay": "C1-BODIPY-C12 fatty acid uptake inhibition in Caco-2 cells", "assay_type": "cell-based, human", "details": "for IC50: Homo sapiens, Caco-2, read-out: Caco-2 IC50; for % Transport Standard Assay: compound 40 μM, Caco-2 cells, % of no-compound control, mean ± SD"}, "Caco-2 cells [5]": {"test_system": "Caco-2 cells", "assay": "MTT cytotoxicity assay in Caco-2 cells", "details": "24 h"}, "[6]": {"details": "50 μM, Caco-2 cells (10 times the IC50 dosage)"}}, "data": [{"compound": "COc1cc(/C=C2/SC(=S)N(c3cccc(Cl)c3)C2=O)cc(Br)c1O", "note": "[CB-2, (5E)-5-[(3-bromo-4-hydroxy-5-methoxyphenyl)methylene]-3-(3-chlorophenyl)-2-thioxothiazolidin-4-one]", "values": [{"measurement": "% Transport after 24 Hour Recovery", "setting": "Caco-2 cells [1]", "result": "93 ±13", "unit": "%"}, {"measurement": "IC50", "setting": "HepG2 cells", "result": "7.55 ± 1.23", "unit": "µM"}, {"measurement": "IC50", "setting": "3T3-L1 adipocytes", "result": "231 ± 33.5", "unit": "µM"}, {"measurement": "Inhibition of oleoyl CoA synthetase activity", "setting": "[2]; 50 μM (10 times the IC50), cell extracts", "result": "about 50%"}, {"measurement": "2-NBDG glucose transport", "setting": "Caco-2 cells [3]; 20 μM", "result": "not affected"}, {"measurement": "IC50", "setting": "Caco-2 cells [4]", "result": "3.99 ± 0.32", "unit": "µM"}, {"measurement": "% Transport Standard Assay", "setting": "Caco-2 cells [4]", "result": "46 ± 3", "unit": "%"}, {"measurement": "Cellular toxicity (MTT assay)", "setting": "Caco-2 cells [5]; [6]", "result": "not toxic"}]}, {"compound": "O=C1C=CC=CC1=C1NNC2(S1)C(=O)Nc1ccc(Br)cc12", "note": "(stereo not drawn) [CB-16, 5′-bromo-5-(6-oxocyclohexa-2,4-dien-1-ylidene)spiro[1,3,4-thiadiazolidine-2,3′-1H-indole]-2′-one]", "values": [{"measurement": "% Transport after 24 Hour Recovery", "setting": "Caco-2 cells [1]", "result": "99 ± 16", "unit": "%"}, {"measurement": "Oleoyl CoA synthetase activity after compound treatment", "setting": "[2]", "result": "not reduced"}, {"measurement": "2-NBDG glucose transport", "setting": "Caco-2 cells [3]; 20 μM", "result": "not affected"}, {"measurement": "IC50", "setting": "Caco-2 cells [4]", "result": "6.66 ± 0.64", "unit": "µM"}, {"measurement": "Cellular toxicity (MTT assay)", "setting": "Caco-2 cells [5]; [6]", "result": "not toxic"}]}, {"compound": "OCC(CCc1c[nH]c2ccccc12)c1c[nH]c2ccccc12", "note": "(stereo not drawn) [NCI-3, 2,4-bis(1H-indol-3-yl)butan-1-ol]", "values": [{"measurement": "IC50", "setting": "HepG2 cells", "result": "84.1 ± 14.1", "unit": "µM"}, {"measurement": "IC50", "setting": "3T3-L1 adipocytes", "result": "143 ± 22.4", "unit": "µM"}, {"measurement": "Oleoyl CoA synthetase activity after compound treatment", "setting": "[2]", "result": "not reduced"}, {"measurement": "2-NBDG glucose transport", "setting": "Caco-2 cells [3]; 50 μM", "result": "reduced 2-NBDG transport slightly"}, {"measurement": "IC50", "setting": "Caco-2 cells [4]", "result": "29.2 ± 3.64", "unit": "µM"}, {"measurement": "% Transport Standard Assay", "setting": "Caco-2 cells [4]", "result": "52 ± 2", "unit": "%"}, {"measurement": "Cellular toxicity (MTT assay)", "setting": "Caco-2 cells [5]; 100 μM, Caco-2 cells", "result": "not toxic"}]}, {"compound": "Oc1c(C2=NCCNC(C(F)(F)F)=C2)ccc2ccccc12", "note": "[CB-6, 2-[7-(trifluoromethyl)-2,3-dihydro-1H-1,4-diazepin-5-yl]naphthalen-1-ol]", "values": [{"measurement": "% Transport after 24 Hour Recovery", "setting": "Caco-2 cells [1]", "result": "74 ± 12", "unit": "%"}, {"measurement": "Oleoyl CoA synthetase activity after compound treatment", "setting": "[2]", "result": "not reduced"}, {"measurement": "2-NBDG glucose transport", "setting": "Caco-2 cells [3]; 20 μM", "result": "not affected"}, {"measurement": "IC50", "setting": "Caco-2 cells [4]", "result": "4.93 ± 0.4", "unit": "µM"}, {"measurement": "Cellular toxicity (MTT assay)", "setting": "Caco-2 cells [5]; [6]", "result": "not toxic"}]}, {"compound": "O=c1cc(-c2ccc([N+](=O)[O-])cc2)nc2c(-c3ccc(Cl)cc3)c(Cc3ccccc3)[nH]n12", "note": "[CB-5, 2-benzyl-3-(4-chlorophenyl)-5-(4-nitrophenyl)-1H-pyrazolo[5,1-b]pyrimidin-7-one]", "values": [{"measurement": "% Transport after 24 Hour Recovery", "setting": "Caco-2 cells [1]", "result": "88 ±18", "unit": "%"}, {"measurement": "IC50", "setting": "HepG2 cells", "result": "10.2 ± 1.26", "unit": "µM"}, {"measurement": "IC50", "setting": "3T3-L1 adipocytes", "result": "901 ± 205", "unit": "µM"}, {"measurement": "Oleoyl CoA synthetase activity after compound treatment", "setting": "[2]", "result": "not reduced"}, {"measurement": "2-NBDG glucose transport", "setting": "Caco-2 cells [3]; 20 μM", "result": "not affected"}, {"measurement": "IC50", "setting": "Caco-2 cells [4]", "result": "6.34 ± 0.93", "unit": "µM"}, {"measurement": "% Transport Standard Assay", "setting": "Caco-2 cells [4]", "result": "54 ± 1", "unit": "%"}, {"measurement": "Cellular toxicity (MTT assay)", "setting": "Caco-2 cells [5]; [6]", "result": "not toxic"}]}]}
